Assay results taken from ChEMBL document CHEMBL4480398, “1,2,4-Triazolo[1,5-a]pyrimidines in drug design” (Eur J Med Chem, 2019).
In brackets after ≈: the same amount, converted by molar mass.

Experiments:
Type in all cases: functional
[1] = tested on: Mycobacterium tuberculosis; test: Antibacterial activity against multidrug-resistant Mycobacterium tuberculosis M22 after 9 days by inverted microscopic analysis; conditions: M22, 216 h
[2] = tested on: Mycobacterium tuberculosis; test: Antibacterial activity against multidrug-resistant Mycobacterium tuberculosis M23 after 9 days by inverted microscopic analysis; conditions: M23, 216 h
[3] = tested on: Mycobacterium tuberculosis; test: Antibacterial activity against multidrug-resistant Mycobacterium tuberculosis P887 after 9 days by inverted microscopic analysis; conditions: P887, 216 h
[4] = tested on: Mycobacterium tuberculosis; test: Antibacterial activity against extensively drug resistant Mycobacterium tuberculosis X24 after 9 days by inverted microscopic analysis; conditions: X24, 216 h
[5] = tested on: Mycobacterium tuberculosis; test: Antibacterial activity against extensively drug resistant Mycobacterium tuberculosis X59 after 9 days by inverted microscopic analysis; conditions: X59, 216 h

With Cc1ccn2nc(S(=O)(=O)Nc3c(Br)ccc4cccnc34)nc2n1 the MIC [1] was 0.5 µM (≈ 0.21 µg/mL), the MIC [2] was 0.5 µM (≈ 0.21 µg/mL) and the MIC [3] was 0.5 µM (≈ 0.21 µg/mL). For the same compound, the MIC [4] was 0.5 µM (≈ 0.21 µg/mL) and the MIC [5] was 0.5 µM (≈ 0.21 µg/mL).
Cc1nc2nc(S(=O)(=O)Nc3c(Br)ccc4cccnc34)nn2c2c1CCC2 showed an MIC [1] of 2 µM (≈ 0.919 µg/mL), an MIC [2] of 2 µM (≈ 0.919 µg/mL) and an MIC [3] of 2 µM (≈ 0.919 µg/mL). The MIC [4] was 2 µM (≈ 0.919 µg/mL) and the MIC [5] was 2 µM (≈ 0.919 µg/mL).
